# Data from patent US11337984B2, “Methods for treating, diagnosing and prognosing a haematological malignancy” (Institut de Recerca Contra La Leucèmia Josep Carreras, priority 2014, dated 2022).
# “Also recorded” adds a separate entry of the source.
# What was measured:
# [1] = tested on: primary AML patient cells; assay: Engraftment of ex vivo treated primary AML cells in NSG mice; set-up: species or system mouse; conditions: ex vivo 10 μM for 18 h; bone marrow 8 weeks after transplantation; versus vehicle
# Description: (§1) FIG. 16. 5HTR antagonist treatment reduces the leukemia regeneration capacity of primary AML cells, whilst sparing healthy hematopoietic stem/progenitor cells. 1-10×10^6 primary AML patient cells or 10-14×10^4 lineage-depleted CB cells were ex vivo treated (10 μM apomorphine, 10 μM methiothepin or vehicle control) for 18 h in IMDM supplemented with 5% heat-inactivated fetal bovine serum and hematopoietic cytokines. Cells were injected IV in previously busulfan (30 mg/kg)-conditioned NSG mice and left 8 weeks untreated. Mice were sacrificed and their bones (iliac crests, femurs and tibias) were harvested and analyzed for the presence of human leukemia (upper panel) or healthy blood (lower panel) cells by flow cytometry. Four AML patient samples and three umbilical cord blood (UCB) samples were tested. *p<0.05; **p<0.01.
# (§2) Leukemia-initiating cells (LIC) or LSCs are responsible for the engraftment of AML cells in xenograft mouse models and are thought to initiate and maintain the disease in humans. Primary AML patient samples were treated ex vivo with 5HTR antagonists for 18 h and transplanted into conditioned immunodeficient NSG mice. Eight weeks after transplantation, murine bone marrow was analyzed for the presence of human AML cells.
# [2] = tested on: HL-60, KG-1, MonoMac-1 and Kasumi-1 AML cell lines; assay: Cell viability of AML cell lines by flow cytometry (7-AAD/Hoechst, volumetric count); assay type: cell-based, human
# Description: FIG. 1. […] 10^6 HL-60, KG-1, MonoMac-1 and Kasumi-1 cells per mL in complete RPMI media were treated with 0.1, 1 and 10 μM Apomorphine for 72 h. […] Cells were stained with 7-aminoactinomycin D (7-AAD, CAS no. 7240-37-1) and Hoechst 33342 (CAS no. 23491-52-3) and analyzed by flow cytometry. […] Cell number was calculated by volumetric count. A. The mean (symbol) for each AML cell line and standard deviation (error bars) from 6 different biological replicates are represented. B. The average corresponding to the four different AML cell lines is represented. *p<0.05.
# FIG. 2. […] Cell number was calculated by volumetric count. A. The mean (symbol) for each AML cell line and standard deviation (error bars) from 6 different biological replicates are represented. B. AML cell lines were treated with 10 μM Apomorphine or Methiothepin in the presence or absence of 5-CT or 5-HT. *p<0.05. Apo: apomorphine; Methio: methiothepine.
# In order to test the anti-leukaemic effect of 5HTR antagonists, HL-60 (Collins, Gallo et al. Nature. 1977; 270(5635):347-9), MonoMac-1 (Steube, Teepe et al. Leuk Res. 1997; 21(4):327-35), KG-1 (Koeffler and Golde. Science. 1978; 200(4346):1153-4) and Kasumi-1 (Asou, Tashiro et al. Blood. 1991; 77(9):2031-6) AML (Acute Myeloid Leukaemia) cell lines were treated with the broad 5HTR antagonist Apomorphine (CAS no. 314-19-2) at different doses for 72 h. One million cells per mL were seeded in complete RPMI media supplemented with 10% fetal bovine serum in a 96-well plate. The concentration used for the Apomorphine treatment was 0.1, 1 and 10 μM.
# The human 5HTR family is composed by 7 subtypes (from 1 to 7) of receptors […]. HL-60, KG-1, MonoMac-1 and Kasumi-1 AML cell lines were incubated with subtype-specific 5HTR antagonists: Apomorphine (type 1, 2 and 5), Methiothepin (type 1 and 2) (CAS no. 74611-28-2), Amperozide (type 2) (CAS no. 75558-90-6), GR113808 (type 4) (CAS no. 144625-51-4). 72 h after treatment, cell viability was determined by flow cytometry. Cells were stained with 7-AAD (CAS no. 7240-37-1) and Hoechst 33342 (CAS no. 23491-52-3). Viability cells were identified by 7-AAD staining exclusion and the presence of Hoechst positive stain. Cell counts were measured by volume. […] In fact, the anti-leukaemic effect was reversed in the presence of a competitive agonist such as the natural ligand 5-HT (CAS no. 153-98-0) or 5-CT (CAS no. 74885-72-6).
# primary AML blasts = assay: Cell viability of primary patient AML samples (bulk and CD34+CD38- primitive population); assay type: cell-based, human; conditions: 0.1, 1 and 10 μM, 24 and 72 h
# Description: FIG. 3. […] The primitive AML population was identified within the AML bulk population based on their positivity to CD34 and negativity to CD38. […] Cell number was calculated by volumetric count. 11 primary AML samples were analyzed in triplicates. Each symbol represents a specific AML patient.
# FIG. 4. […] The primitive AML population was identified within the AML bulk population based on their positivity to CD34 and negativity to CD38. […] Cell number was calculated by volumetric count. 11 primary AML samples were analyzed in triplicates. Each symbol represents a specific AML patient.
# Primary AML patient samples were treated with subtype 1 and 2 HTR antagonists for 24 and 72 h at 0.1, 1 and 10 μM. Five hundred thousand cells per mL were seeded in IMDM supplemented with insulin, transferrin, bovine serum albumin, IL3 and non-essential aminoacids. Cell viability was measured by flow cytometry as described above.
# Like the normal haematopoietic system, AML is thought to be organized as a hierarchy of distinct and functionally heterogeneous classes of cells that is ultimately sustained by a small number of leukaemic stem cells (LSCs) with enhanced self-renewal capacity, impaired differentiation ability, and increase drug resistance (Bonnet and Dick Nat Med. 1997; 3(7):730-7). The LSC population is found enriched inside the CD34+CD38− AML blast population.
# [3] = tested on: primary AML patient samples; assay: Myeloid differentiation markers on primary patient AML samples; assay type: cell-based, human; conditions: 0.1, 1 and 10 μM, 72 h
# Description: FIG. 6. […] The surface expression of CD11b, CD14 and CD15 was detected by flow cytometry. […] 9 primary AML samples were analyzed in triplicates. Each symbol represents a specific AML patient.
# FIG. 7. […] The surface expression of CD11b, CD14 and CD15 was detected by flow cytometry. […] 9 primary AML samples were analyzed in triplicates. Each symbol represents a specific AML patient.
# [4] = tested on: HL-60, KG-1, MonoMac-1 and Kasumi-1 AML cell lines; assay: Differentiation-associated surface markers on AML cell lines by flow cytometry; assay type: cell-based, human; conditions: 0.1, 1 and 10 μM, 72 h; all AML cell lines
# Description: FIG. 5. […] The surface expression of CD11c, CD11b and CD14 was detected by flow cytometry. […] MFI: Mean Fluorescence Intensity.
# HL-60, KG-1, MonoMac-1 and Kasumi-1 AML cell lines were treated with Apomorphine and Methiothepin at different concentrations for 72 h as described above. The expression of differentiation-associated surface markers was measured by flow cytometry.
# [5] = tested on: lineage-depleted UCB cells; assay: Engraftment of ex vivo treated lineage-depleted UCB cells in NSG mice; set-up: species or system mouse; conditions: ex vivo 10 μM for 18 h; 8 weeks after transplantation
# Description: as §1, §2
compound,measurement,setting,value
"CN1CCc2cccc3c2[C@H]1Cc1ccc(O)c(O)c1-3 [Apomorphine, (6aR)-6-methyl-5,6,6a,7-tetrahydro-4H-dibenzo[de,g]quinoline-10,11-diol]",homing and engraftment capacity of treated AML cells,[1],less homing and engraftment capacity
same,anti-leukaemic effect in the presence of a competitive agonist (5-HT or 5-CT),[2]; 10 μM antagonist with 5-CT or 5-HT,reversed
same,cell viability of AML cell lines,"[2]; 0.1, 1 and 10 μM, 72 h, HL-60, KG-1, MonoMac-1, Kasumi-1",a reduction in cell viability was detected in a dose-response fashion; also recorded: reduced AML cell viability
same,cell death on AML cell lines,"[2]; subtype-specific 5HTR antagonists, 0.1, 1 and 10 μM, 72 h",induced cell death
same,cell death on primary AML blasts,primary AML blasts; bulk population,induced cell death on primary AML blasts in a dose-response fashion
same,cell viability of the most primitive LSC-enriched blast population,primary AML blasts; CD34+CD38- population,reduced cell viability
same,"myeloid markers (CD11b, CD14, CD15) on primary AML patient samples",[3],induced the upregulation of myeloid markers; also recorded: induced myeloid differentiation
same,"expression of differentiation-associated surface markers CD11c, CD11b and CD14",[4],"induced the expression of CD11c, CD11b and CD14"
same,normal hematopoietic regeneration capacity of lineage-depleted UCB cells,[5],negligible effect
